Key:
Test in all cases: relative viability (nuclei count vs DMSO), 5 days (fraction); higher = more cells survive
Cediranib + Luminespib = compound: COc1cc2c(Oc3ccc4[nH]c(C)cc4c3F)ncnc2cc1OCCCN1CCCC1 [Cediranib] + CCNC(=O)c1noc(-c2cc(C(C)C)c(O)cc2O)c1-c1ccc(CN2CCOCC2)cc1 [Luminespib] (partner 0.01 µM)
How it was run: (§1)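 The day after seeding in 1536-well plates, lung cancer cell lines were treated by pin tool with a single drug, or with a fixed anchor-drug dose together with five library-drug doses (not always all listed) in √10 steps. After 5 days, a combined fix-and-stain solution (final 0.05% Triton X-100, 1% formaldehyde, 1 ug/ml Hoechst) was added. Nuclei counted on 4× images gave relative viability as treated counts over vehicle counts, reported as the median of duplicate plates.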

Decitabine + Lapatinib = compound: Nc1ncn([C@H]2C[C@H](O)[C@@H](CO)O2)c(=O)n1 [Decitabine] + CS(=O)(=O)CCNCc1ccc(-c2ccc3ncnc(Nc4ccc(OCc5cccc(F)c5)c(Cl)c4)c3c2)o1 [Lapatinib] (partner 2 µM)
How it was run: as §1

[1] = compound: O=C(C[C@H]1NCCC[C@@H]1O)Cn1cnc2cc(Br)c(Cl)cc2c1=O (racemic) [Halofuginone] + CC(C)C[C@H](NC(=O)[C@H](Cc1ccccc1)NC(=O)c1cnccn1)B(O)O [Bortezomib] (partner 0.002 µM)
How it was run: as §1

Halofuginone + Alpelisib = compound: O=C(C[C@H]1NCCC[C@@H]1O)Cn1cnc2cc(Br)c(Cl)cc2c1=O (racemic) [Halofuginone] + Cc1nc(NC(=O)N2CCC[C@H]2C(N)=O)sc1-c1ccnc(C(C)(C)C(F)(F)F)c1 [Alpelisib] (partner 2 µM)
How it was run: as §1

Cell Line	relative viability (Cediranib + Luminespib; first compound 0.04 µM)	relative viability (Cediranib + Luminespib; first compound 0.4 µM)	relative viability (Cediranib + Luminespib; first compound 1.265 µM)	relative viability (Cediranib + Luminespib; first compound 4 µM)	relative viability (Decitabine + Lapatinib; first compound 0.1265 µM)	relative viability (Decitabine + Lapatinib; first compound 0.4 µM)	relative viability (Decitabine + Lapatinib; first compound 1.265 µM)	relative viability (Decitabine + Lapatinib; first compound 4 µM)	relative viability ([1]; first compound 0.001 µM)	relative viability ([1]; first compound 0.003162 µM)	relative viability ([1]; first compound 0.01 µM)	relative viability ([1]; first compound 0.03162 µM)	relative viability ([1]; first compound 0.1 µM)	relative viability (Halofuginone + Alpelisib; first compound 0.001 µM)	relative viability (Halofuginone + Alpelisib; first compound 0.003162 µM)	relative viability (Halofuginone + Alpelisib; first compound 0.01 µM)	relative viability (Halofuginone + Alpelisib; first compound 0.03162 µM)	relative viability (Halofuginone + Alpelisib; first compound 0.1 µM)	relative viability (Cediranib + Luminespib; first compound 0.1265 µM)	relative viability (Decitabine + Lapatinib; first compound 0.04 µM)
HCC-827	0.724	0.541	0.5	0.439	0.168	0.187	0.187	0.2	1.04	1.03	0.955	0.998	0.918	0.98	0.959	0.908	1.07	0.815	–	–
NCI-H322M	0.982	0.826	0.831	0.771	0.629	0.609	0.434	0.421	1.16	1.13	1.28	1.16	0.997	0.516	0.879	0.777	0.802	0.768	1.15	0.682
NCI-H1666	1.05	1.05	0.981	1.07	0.66	0.488	0.56	0.476	0.856	0.902	0.791	0.85	0.618	0.936	0.791	0.857	0.92	0.607	1.04	0.622
NCI-H1563	0.513	0.541	0.559	0.601	1.02	0.87	1.07	0.8	0.708	0.885	0.686	0.585	0.515	0.874	0.935	0.851	0.633	0.508	0.456	0.922
NCI-H1437	1.15	1.04	1.1	1.13	0.582	0.274	0.235	0.221	0.548	0.604	0.504	0.483	0.253	0.996	0.957	0.979	0.673	0.294	1.05	0.505
NCI-H1792	0.429	0.479	0.538	0.508	0.94	0.806	0.564	0.53	0.965	1.01	1.01	0.942	0.866	0.795	0.724	0.702	0.662	0.686	0.644	0.851
NCI-H1355	0.739	0.686	0.813	0.719	0.592	0.444	0.286	0.279	1.13	1.19	1.18	1.24	0.951	0.811	0.781	0.894	0.79	0.743	0.871	0.884
SK-LU-1	0.203	0.183	0.203	0.194	0.604	0.42	0.457	0.38	1.28	0.931	0.955	1.31	0.821	1.14	1.13	1.02	0.888	0.247	0.195	0.66
NCI-H2228	0.118	0.129	0.144	0.14	0.727	0.489	0.282	0.209	1.06	0.856	0.988	0.426	0.151	0.797	0.877	0.762	0.399	0.151	0.176	0.595
NCI-H2347	0.321	0.637	0.506	0.747	0.938	0.793	0.548	0.633	1.24	1.09	0.758	1.03	0.852	1.07	1.07	1.09	1.02	0.876	0.404	0.895
A-427	1.25	0.84	0.906	0.928	0.745	0.318	0.333	0.229	1	0.869	1	0.954	0.932	1.07	1.14	1.05	0.978	0.94	–	0.806
PC-14	0.137	0.154	0.108	0.119	0.297	0.196	0.226	0.228	0.865	0.819	0.697	0.13	0.0654	0.985	1.01	0.878	0.724	0.428	0.16	–
NCI-H2087	0.194	0.191	0.136	0.144	0.637	0.457	0.346	0.37	0.758	0.839	0.86	0.676	0.917	1.12	0.98	1.14	0.935	0.612	0.191	0.774
HOP-62	1.01	0.79	0.949	0.94	0.604	0.348	0.1	0.14	0.679	0.702	0.62	0.632	0.522	0.992	1.03	0.902	1.04	0.423	–	0.962
EKVX	0.965	0.822	0.742	0.995	0.2	0.213	0.184	0.163	1.15	1.02	1.05	1.01	0.935	1.01	0.922	0.862	0.859	0.638	0.969	0.211
EMC-BAC-2	1.15	1.13	1.18	1.16	0.989	0.556	0.67	0.586	1.1	1.09	1.08	1.02	0.986	0.765	0.761	0.766	0.723	0.517	1.3	0.926

Source: the supplement of paper PMC10307832
